# Laboratory results: patent US20250034135A1, “ANTI-APOPTOTIC PROTEIN BCL-2 INHIBITOR, PHARMACEUTICAL COMPOSITION AND USES THEREOF” (HANGZHOU HEALZEN THERAPEUTICS CO., LTD., priority 2021, published 2025)
# Target: BCL2 (Homo sapiens (Human), UniProt P10415)
# Test: Molecular level activity test of anti-apoptotic protein BCL2 (HTRF, binding to Bim peptide)
# Details: HTRF, binding of BCL2 to Bim peptide; read-out: BCL2 nM (inhibitory activity, IC50)
# Summary of the method: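 HTRF binding of His-tagged recombinant BCL2 to biotin-tagged Bim peptide, compound in 2% DMSO. After 1 h reaction, anti-His and streptavidin-XL665 detection reagents were added and incubated 4 h at room temperature before reading.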
# Sequence of BCL2 (P10415 whole entry): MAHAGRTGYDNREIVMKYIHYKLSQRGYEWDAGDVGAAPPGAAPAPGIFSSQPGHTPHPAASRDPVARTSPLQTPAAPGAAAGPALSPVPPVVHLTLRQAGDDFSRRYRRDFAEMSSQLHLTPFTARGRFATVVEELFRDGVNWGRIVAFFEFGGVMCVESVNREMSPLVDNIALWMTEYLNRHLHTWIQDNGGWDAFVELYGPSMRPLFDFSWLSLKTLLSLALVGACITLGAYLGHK
row,SMILES,IC50 [nM]
1,"COc1ccc(CN2CCN(C3CC4(CCN(c5cc(Oc6cnc7[nH]ccc7c6)c(C(=O)NS(=O)(=O)c6cc([N+](=O)[O-])c(NCC7(F)CCOCC7)c7n[nH]c(=O)cc67)cc5F)CC4)C3)[C@H](c3ccccc3C(C)C)C2)cc1 [compound 141, (R)-2-((1H-pyrrolo[2,3-b]pyrid-5-yl)oxy)-5-fluoro-N-((8-(((4-fluorotetrahydro-2H-pyran-4-yl)methyl)amino)-7-nitro-3-oxo-2,3-misoline-5-yl)sulfonyl)-4-(2-(2-(2-isopropylphenyl)-4-(4-methoxybenzyl)piperazin-1-yl)-7-azaspiro[3.5]non-7-yl)benzamide]",< 10
2,"COc1ccc(CN2CCN(C3CC4(CCN(c5cc(Oc6cnc7[nH]ccc7c6)c(C(=O)NS(=O)(=O)c6cc([N+](=O)[O-])c(NCC7(F)CCOCC7)c7c6OCC7)cc5F)CC4)C3)[C@H](c3ccccc3C(C)C)C2)cc1 [compound 142, (R)-2-((1H-pyrrolo[2,3-b]pyrid-5-yl)oxy)-5-fluoro-N-((4-(((4-fluorotetrahydro-2H-pyran-4-yl)methyl)amino)-5-nitro-2,3-dihydrobenzofuran-7-yl)sulfonyl)-4-(2-(2-(2-isopropylphenyl)-4-(4-methoxybenzyl)piperazin-1-yl)-7-azaspiro[3.5]non-7-yl)benzamide]",< 10
3,"COc1ccc(CN2CCN(C3CC4(CCN(c5cc(Oc6cnc7[nH]ccc7c6)c(C(=O)NS(=O)(=O)c6cc([N+](=O)[O-])c(NCC7(F)CCOCC7)c7ccoc67)cc5F)CC4)C3)[C@H](c3ccccc3C(C)C)C2)cc1 [compound 143, (R)-2-((1H-pyrrolo[2,3-b]pyrid-5-yl)oxy)-5-fluoro-N-((4-(((4-fluorotetrahydro-2H-pyran-4-yl)methyl)amino)-5-nitrobenzofuran-7-yl)sulfonyl)-4-(2-(2-(2-isopropylphenyl)-4-(4-methoxybenzyl)piperazin-1-yl)-7-azaspiro[3.5]non-7-yl)benzamide]",< 10
4,"COc1ccc(CN2CCN(C3CC4(CCN(c5ccc(C(=O)NS(=O)(=O)c6cc([N+](=O)[O-])c(NCC7(F)CCOCC7)c7c6OCO7)c(Oc6cnc7[nH]ccc7c6)c5)CC4)C3)[C@H](c3ccccc3C(C)C)C2)cc1 [compound 147, (R)-2-((1H-pyrrolo[2,3-b]pyrid-5-yl)oxy)-N-((7-(((4-fluorotetrahydro-2H-pyran-4-yl)methyl)amino)-6-nitrobenzo[d][1,3]dioxocyclopent-4-yl)sulfonyl)-4-(2-(2-(2-isopropylphenyl)-4-(4-methoxybenzyl)piperazin-1-yl)-7-azaspiro[3.5]non-7-yl)benzamide]",< 10
5,"COc1ccc(CN2CCN(C3CC4(CCN(c5ccc(C(=O)NS(=O)(=O)c6cc([N+](=O)[O-])c(NC[C@H]7COCCO7)c7c6OCO7)c(Oc6cnc7[nH]ccc7c6)c5)CC4)C3)[C@H](c3ccccc3C(C)C)C2)cc1 [compound 148, N-((7-((((S)-1,4-dioxan-2-yl)methyl)amino)-6-nitrobenzo[d][1,3]dioxocyclopent-4-yl)sulfonyl)-2-((1H-pyrrolo[2,3-b]pyrid-5-yl)oxy)-4-(2-((R)-2-(2-isopropylphenyl)-4-(4-methoxybenzyl)piperazin-1-yl)-7-azaspiro[3.5]non-7-yl)benzamide]",< 10
6,"COc1ccc(CN2CCN(C3CC4(CCN(c5cc(Oc6cnc7[nH]ccc7c6)c(C(=O)NS(=O)(=O)c6cc([N+](=O)[O-])c(NC[C@H]7COCCO7)c7c6OCO7)cn5)CC4)C3)[C@H](c3ccccc3C(C)C)C2)cc1 [compound 151, N-((7-((((S)-1,4-dioxan-2-yl)methyl)amino)-6-nitrobenzo[d][1,3]dioxocyclopent-4-yl)sulfonyl)-4-((1H-pyrrolo[2,3-b]pyrid-5-yl)ox)-6-(2-((R)-2-(2-isopropylphenyl)-4-(4-methoxybenzyl)piperazin-1-yl)-7-azaspiro[3.5]non-7-yl) nicotinamide]",< 10
7,"COc1ccc(CN2CCN(C3CC4(CCN(c5cc(Oc6cnc7[nH]ccc7c6)c(C(=O)NS(=O)(=O)c6ccc(NCC7(F)CCOCC7)c([N+](=O)[O-])c6)cc5F)CC4)C3)[C@@H](c3ccccc3C(C)C)C2)cc1 [compound 153, (S)-2-((1H-pyrrolo[2,3-b]pyrid-5-yl)oxy)-5-fluoro-N-((4-(((4-fluorotetrahydro-2H-pyran-4-yl)methyl)amino)-3-nitrophenyl)sulfonyl)-4-(2-(2-(2-isopropylphenyl)-4-(4-methoxybenzyl)piperazin-1-yl)-7-azaspiro[3.5]non-7-yl)benzamide]",< 10
8,"COc1ccc(CN2C[C@@H](c3ccccc3C(C)C)N(C3CC4(CCN(c5cc(Oc6cnc7[nH]ccc7c6)c(C(=O)NS(=O)(=O)c6ccc(NCC7(F)CCOCC7)c([N+](=O)[O-])c6)cc5F)CC4)C3)C[C@@H]2C)cc1 [compound 154, 2-((1H-pyrrolo[2,3-b]pyrid-5-yl)oxy)-5-fluoro-N-((4-(((4-fluorotetrahydro-2H-pyran-4-yl)methyl)amino)-3-nitrophenyl)sulfonyl)-4-(2-((2R,5S)-2-(2-isopropylphenyl)-4-(4-methoxybenzyl)-5-methylpiperazin-1-yl)-7-azaspiro[3.5]non-7-yl)benzamide]",< 10
9,"COc1ccc(CN2C[C@@H](c3ccccc3C(C)C)N(C3CC4(CCN(c5cc(Oc6cnc7[nH]ccc7c6)c(C(=O)NS(=O)(=O)c6ccc(NCC7(F)CCOCC7)c([N+](=O)[O-])c6)cc5F)CC4)C3)C[C@H]2C)cc1 [compound 155, 2-((1H-pyrrolo[2,3-b]pyrid-5-yl)oxy)-5-fluoro-N-((4-(((4-fluorotetrahydro-2H-pyran-4-yl)methyl)amino)-3-nitrophenyl)sulfonyl)-4-(2-((2R,5R)-2-(2-isopropylphenyl)-4-(4-methoxybenzyl)-5-methylpiperazin-1-yl)-7-azaspiro[3.5]non-7-yl)benzamide]",< 10
10,"CC(C)c1ccccc1[C@@H]1CCCN1C1CC2(CCN(c3cc(Oc4cnc5[nH]ccc5c4)c(C(=O)NS(=O)(=O)c4cc([N+](=O)[O-])c(NCC5CCOCC5)c5c4OCO5)cc3F)CC2)C1 [compound 156, (S)-2-((1H-pyrrolo[2,3-b]pyrid-5-yl)oxy)-5-fluoro-4-(2-(2-(2-isopropylphenyl)pyrrolidin-1-yl)-7-azaspiro[3.5]non-7-yl)-N-((6-nitro-7-(((tetrahydro-2H-pyran-4-yl)methyl)amino)benzo[d][1,3]dioxocyclopent-4-yl)sulfonyl)benzamide]",< 10
11,"CC(C)c1ccccc1[C@@H]1CCCN1C1CC2(CCN(c3cc(Oc4cnc5[nH]ccc5c4)c(C(=O)NS(=O)(=O)c4cc([N+](=O)[O-])c(NC[C@H]5COCCO5)c5c4OCO5)cc3F)CC2)C1 [compound 157, N-((7-((((S)-1,4-dioxan-2-yl)methyl)amino)-6-nitrobenzo[d][1,3]dioxocyclopent-4-yl)sulfonyl)-2-((1H-pyrrolo[2,3-b]pyrid-5-yl)oxy)-5-fluoro-4-(2-((S)-2-(2-isopropylphenyl)pyrrolidin-1-yl)-7-azaspiro[3.5]non-7-yl)benzamide]",< 10
12,"CC(C)c1ccccc1[C@@H]1CCCN1C1CC2(CCN(c3ccc(C(=O)NS(=O)(=O)c4cc([N+](=O)[O-])c(NC[C@H]5CC[C@](C)(O)CC5)c5c4OCO5)c(Oc4cnc5[nH]ccc5c4)c3)CC2)C1 [compound 158, 2-((1H-pyrrolo[2,3-b]pyrid-5-yl)oxy)-N-((7-((((1r, 4r)-4-hydroxy-4-methylcyclohexyl)methyl)amino)-6-nitrobenzo[d][1,3]dioxocyclopent-4-yl)sulfonyl)-4-(2-((S)-2-(2-isopropylphenyl)pyrrolidin-1-yl)-7-azaspiro[3.5]non-7-yl)benzamide]",< 10
13,"CC(C)c1ccccc1[C@@H]1CCCN1C1CC2(CCN(c3ccc(C(=O)NS(=O)(=O)c4cc([N+](=O)[O-])c(NCC5(F)CCOCC5)c5c4OCO5)c(Oc4cnc5[nH]ccc5c4)c3)CC2)C1 [compound 159, (S)-2-((1H-pyrrolo[2,3-b]pyrid-5-yl)oxy)-N-((7-(((4-fluorotetrahydro-2H-pyran-4-yl)methyl)amino)-6-nitrobenzo[d][1,3]dioxocyclopent-4-yl)sulfonyl)-4-(2-(2-(2-isopropylphenyl)pyrrolidin-1-yl)-7-azaspiro[3.5]non-7-yl)benzamide]",< 10
14,"CC(C)c1ccccc1[C@@H]1CCCN1C1CC2(CCN(c3ccc(C(=O)NS(=O)(=O)c4cc([N+](=O)[O-])c(NCC5CCOCC5)c5c4OCO5)c(Oc4cnc5[nH]ccc5c4)c3)CC2)C1 [compound 160, (S)-2-((1H-pyrrolo[2,3-b]pyrid-5-yl)oxy)-4-(2-(2-(2-isopropylphenyl)pyrrolidin-1-yl)-7-azaspiro[3.5]non-7-yl)-N-((6-nitro-7-(((tetrahydro-2H-pyran-4-yl)methyl)amino)benzo[d][1,3]dioxocyclopent-4-yl)sulfonyl)benzamide]",< 10
15,"CC(C)c1ccccc1[C@@H]1CCCN1C1CC2(CCN(c3ccc(C(=O)NS(=O)(=O)c4cc([N+](=O)[O-])c(NC[C@H]5COCCO5)c5c4OCO5)c(Oc4cnc5[nH]ccc5c4)c3)CC2)C1 [compound 161, N-((7-((((S)-1,4-dioxan-2-yl)methyl)amino)-6-nitrobenzo[d][1,3]dioxocyclopent-4-yl)sulfonyl)-2-((1H-pyrrolo[2,3-b]pyrid-5-yl)oxy)-4-(2-((S)-2-(2-isopropylphenyl)pyrrolidin-1-yl)-7-azaspiro[3.5]non-7-yl)benzamide]",< 10
16,"COc1ccc(CN2CCN(C3CC4(CCN(c5ccc(C(=O)NS(=O)(=O)c6cc([N+](=O)[O-])c(NCC7(F)CCOCC7)c7c6OC(C)(C)O7)c(Oc6cnc7[nH]ccc7c6)c5)CC4)C3)[C@H](c3ccccc3C(C)C)C2)cc1 [compound 162, (R)-2-((1H-pyrrolo[2,3-b]pyrid-5-yl)oxy)-N-((7-(((4-fluorotetrahydro-2H-pyran-4-yl)methyl)amino)-2,2-dimethyl-6-nitrobenzo[d][1,3]dioxocyclopent-4-yl)sulfonyl)-4-(2-(2-(2-isopropylphenyl)-4-(4-methoxybenzyl)piperazin-1-yl)-7-azaspiro[3.5]non-7-yl)benzamide]",< 10
